Earlier results as cited in patent US20210198372A1, “METHODS FOR DOSING AND FOR MODULATION OF GENETICALLY ENGINEERED CELLS” (Juno Therapeutics, Inc., priority 2017, published 2021).

Conditions: equivalence in terms of potency for various glucocorticoids; route (IV or PO; IV; none)
For C[C@]12CCC(=O)C=C1CC[C@@H]1[C@@H]2[C@@H](O)C[C@@]2(C)[C@H]1CC[C@]2(O)C(=O)CO [Hydrocortisone], the “Equivalency Potency” value is listed as 20.
In the case of C[C@H]1C[C@@H]2[C@H]([C@@H](O)C[C@@]3(C)[C@H]2CC[C@]3(O)C(=O)COC(=O)CCC(=O)O)[C@@]2(C)C=CC(=O)C=C12 [Methylprednisolone sodium succinate], the “Equivalency Potency” value is listed as 4.
In the case of C[C@]12C=CC(=O)C=C1CC[C@@H]1[C@@H]2[C@@H](O)C[C@@]2(C)[C@H]1CC[C@]2(O)C(=O)CO [Prednisolone], the “Equivalency Potency” value is listed as 5.
